# Measured values published in patent US20230263786A1, “MODULATION OF DRUG-DRUG INTERACTIONS OF VADADUSTAT” (Akebia Therapeutics, Inc., priority 2020, published 2023).
# Where “and” joins values, the source holds several entries; their conditions need not be identical. Equal entries are not always repeated.
# Legend:
# [1] = Phase I single-dose study, moderate hepatic impairment versus normal hepatic function; format: in vivo, human; settings: single 450 mg; for AUC0-inf, plasma, total / AUC0-last, plasma, total / Cmax, plasma, total / Elimination Half-life (t1/2): mean ± SD
# Procedure: A phase I, open-label, parallel-group, single-dose study was conducted to evaluate the pharmacokinetics (PK) of 450 mg vadadustat administered in adults with moderate hepatic impairment (Child-Pugh Class B) versus those with normal hepatic function. The pharmacokinetic (pK) parameters of Compound 1 were characterized. Safety and tolerability were assessed throughout the study.
# Inclusion criteria: participants were male and female adults between 18 and 70 years of age, with either normal hepatic function or moderate hepatic impairment based on the Child-Pugh classification (Child-Pugh Class B [score 7-9]). Moderate hepatic impairment was defined by the presence and severity of elevated bilirubin levels, decreased serum albumin levels, elevated international normalized ratios >2.20, ascites, and hepatic encephalopathy.
# Pharmacokinetics. […] PK parameters Ae0-72, Fe %0-72, and CL, were estimated from the urine concentration-time profiles.
# 8 subjects with hepatic impairment and 8 matched subjects with normal hepatic function were enrolled in the study. All subjects received a single oral 450-mg dose of vadadustat on Day 1 and were required to fast for at least 10 hours before dosing and for 4 hours after dosing.
# [2] = [14C]-labeled Compound 1 650 mg metabolism and excretion; format: in vivo, human; settings: single oral 650 mg [14C]-labeled Compound 1, healthy adult males
# Text: Compound 1 is metabolized via UGT, mainly producing O-glucuronide conjugates.
# The urinary excretion rate of this drug and acyl glucuronide is less than 1% of the total radioactivity.
# [3] = Phase I ferrous sulfate tablet interaction study; settings: for Metabolite Ratio AUC(0-inf) / Metabolite Ratio AUC(0-t) / Metabolite Ratio Cmax: Metabolite/Parent; for AUC(0-inf) / AUC(0-t) / Cmax / Tmax: metabolite in plasma; for AUC(0-inf) / AUC(0-t) / Cmax: mean; for Tmax: median;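 for all read-outs here: crossover in fasted human subjects with four-day washout between periods, plasma glucuronide metabolite pharmacokinetics, ratios computed as metabolite over parent for AUC and Cmax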
# Procedure: Pharmacokinetics. […] The ratio of metabolite to parent was calculated for each glucuronide metabolite for AUC(0-t); and AUC(0-inf) and Cmax.
# Comparative Bioavailability. […] Factors incorporated in the model included: Sequence, Subject (Sequence), Period, and Treatment.
# Treatment of Subjects. […] All subjects are dosed on the same day for Day 1 of Confinement Period 1, and are crossed over to the alternate treatment and are dosed on the same day for Day 1 of Confinement Period 2. Both treatments are administered in a fasted state, and a four-day Washout Period separates each Confinement Period.
# [4] = treatment Compound 1 450 mg alone
smiles,measurement,setting,value
O=C(O)CNC(=O)c1ncc(-c2cccc(Cl)c2)cc1O[C@@H]1O[C@H](C(=O)O)[C@@H](O)[C@H](O)[C@H]1O [Compound 1-O-glucuronide],"Ae0-72, cumulative amount excreted in urine up to 72 hours",[1]; Moderate Hepatic Impairment,585 ± 125.1 mg
same,"Fe%0-72, cumulative fraction excreted in urine",[1]; Moderate Hepatic Impairment,82.8% and 82.8 ± 17.69%
same,"AUC0-inf, plasma, total",[1]; Moderate Hepatic Impairment,70900 ± 24300 ng·h/mL
same,"AUC0-last, plasma, total",[1]; Moderate Hepatic Impairment,68900 ± 24200 ng·h/mL
same,"Cmax, plasma, total",[1]; Moderate Hepatic Impairment,5850 ± 1500 ng/mL
same,Elimination Half-life (t1/2),[1]; Moderate Hepatic Impairment,6.01 ± 2.1 h
same,"Ae0-72, cumulative amount excreted in urine up to 72 hours",[1]; Normal Liver Function,473 ± 83.76 mg
same,"Fe%0-72, cumulative fraction excreted in urine",[1]; Normal Liver Function,66.9% and 66.9 ± 11.84%
same,"AUC0-inf, plasma, total",[1]; Normal Liver Function,63800 ± 21300 ng·h/mL
same,"AUC0-last, plasma, total",[1]; Normal Liver Function,62500 ± 21300 ng·h/mL
same,"Cmax, plasma, total",[1]; Normal Liver Function,6650 ± 2400 ng/mL
same,Elimination Half-life (t1/2),[1]; Normal Liver Function,4.74 ± 1.3 h
same,share of the total radioactivity (AUC0-∞) in plasma,[2],about 15%
same,Metabolite Ratio AUC(0-inf),[3]; treatment Compound 1 + Iron,0.0943
same,Metabolite Ratio AUC(0-t),[3]; treatment Compound 1 + Iron,0.0935
same,Metabolite Ratio Cmax,[3]; treatment Compound 1 + Iron,0.0748
same,Metabolite Ratio AUC(0-inf),[3]; treatment Compound 1 alone,0.104
same,Metabolite Ratio AUC(0-t),[3]; treatment Compound 1 alone,0.104
same,Metabolite Ratio Cmax,[3]; treatment Compound 1 alone,0.0848
same,AUC(0-inf),[3]; [4],44500 ng·h/mL
same,AUC(0-t),[3]; [4],42800 ng·h/mL
same,Cmax,[3]; [4],6070 ng/mL
same,Tmax,[3]; [4],4.0 h
same,AUC(0-inf),[3]; treatment Compound 1 + Iron,19700 ng·h/mL
same,AUC(0-t),[3]; treatment Compound 1 + Iron,18600 ng·h/mL
same,Cmax,[3]; treatment Compound 1 + Iron,2830 ng/mL
same,Tmax,[3]; treatment Compound 1 + Iron,5.0 h
